Experimental findings from US6794377B2, “Ortho, ortho-substituted nitrogen-containing bisaryl compounds, processes for their preparation, their use as medicaments, and pharmaceutical preparation comprising them” (Aventis Pharma Deutschland GmbH, priority 2000, dated 2004) are described below.

A word on the IC50: it is the concentration needed to halve the response being measured.

T1 sequence (P22460 whole entry): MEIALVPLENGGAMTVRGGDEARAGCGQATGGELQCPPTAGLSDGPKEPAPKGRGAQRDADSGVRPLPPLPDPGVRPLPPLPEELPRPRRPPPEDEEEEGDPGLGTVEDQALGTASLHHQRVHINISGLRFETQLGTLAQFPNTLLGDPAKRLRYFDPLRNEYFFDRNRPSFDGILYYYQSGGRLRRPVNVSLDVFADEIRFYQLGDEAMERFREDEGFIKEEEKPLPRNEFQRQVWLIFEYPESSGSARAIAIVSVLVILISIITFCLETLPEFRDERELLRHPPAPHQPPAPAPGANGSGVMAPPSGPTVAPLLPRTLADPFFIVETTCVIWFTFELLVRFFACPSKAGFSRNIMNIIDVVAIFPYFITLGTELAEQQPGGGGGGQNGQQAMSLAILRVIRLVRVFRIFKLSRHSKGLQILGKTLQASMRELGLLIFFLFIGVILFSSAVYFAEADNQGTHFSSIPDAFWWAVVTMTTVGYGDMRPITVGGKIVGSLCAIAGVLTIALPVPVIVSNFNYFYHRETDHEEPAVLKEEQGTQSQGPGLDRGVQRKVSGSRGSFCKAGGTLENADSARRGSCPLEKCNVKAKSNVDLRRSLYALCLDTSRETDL

One experiment concerns the target T1, Kv1.5 channels from humans (Homo sapiens, UniProt P22460).
T1 construct: expressed in transfected cells; host or cells: Xenopus laevis oocytes injected with in vitro synthesized RNA
Briefly: Kv1.5 currents in Xenopus oocytes, 2-microelectrode voltage clamp. The note with it: human Kv1.5 expressed in Xenopus laevis oocytes; voltage jumps to 0 mV and 40 mV lasting 500 ms; room temperature; Hill equation. The experiment is classed as cell-based. As for the experimental part: Kv1.5 channels from humans were expressed in Xenopus oocytes. To this end, oocytes from Xenopus laevis were first isolated and defolliculated. RNA coding for Kv1.5 synthesized in vitro was then injected into these oocytes. After a Kv1.5 protein expression for 1-7 days, Kv1.5 currents were measured on the oocytes using the 2-microelectrode voltage clamp technique. The Kv1.5 channels were in this case as a rule activated using voltage jumps to 0 mV and 40 mV lasting 500 ms. The bath was rinsed using a solution of the following composition: NaCl 96 mM, KCl 2 mM, CaCl2 1.8 mM, MgCl2 1 mM, HEPES 5 mM (titrated with NaOH to pH 7.4). These experiments were carried out at room temperature. The following were employed for data acquisition and analysis: Gene clamp amplifier (Axon Instruments, Foster City, USA) and MacLab D/A converter and software (ADinstruments, Castle Hill, Australia). The substances according to the invention were tested by adding them to the bath solution in different concentrations. The effects of the substances were calculated as the percentage inhibition of the Kv1.5 control current which was obtained when no substance was added to the solution. The data were then extrapolated using the Hill equation in order to determine the inhibition concentrations IC50 for the respective substances.
With `COc1ccc(CC(=O)NCc2ccccc2-c2nccnc2C(=O)NCCc2ccccn2)cc1` [Example 53], the IC50 entry is “inactive”.
Turning to `CC(C)C[C@H](NC(=O)c1nccnc1-c1ccccc1CNC(=O)OC(C)(C)C)C(N)=O` [Example 11], the concentration for half-maximal inhibition (IC50) entry is “inactive”.

The same experiment, now with this note: human Kv1.5 expressed in Xenopus laevis oocytes; voltage jumps to 0 mV and 40 mV lasting 500 ms; room temperature; Hill equation; read-out: IC50.
With `C[C@H](OC(=O)NCc1ccccc1-c1cccnc1C(=O)NCC1CC1)c1ccccc1` [Example 23], the half-inhibitory concentration (IC50) amounted to 0.4 µM.
As to `CC(C)(C)OC(=O)NCc1ccccc1-c1nccnc1C(=O)NCc1ccc(F)cc1F` [Example 8], the IC50 was below 100 µM.
The same measure, in the same setting: under `COc1ccc(CCC(=O)NCc2ccccc2-c2cccnc2C(=O)Nc2ccc(OC)cc2)cc1` [Example 44] stands 6.7 µM; under `COc1ccc(CC(=O)NCc2ccccc2-c2cccnc2C(=O)NCCc2ccccn2)cc1` [Example 36], below 100 µM; under `O=C(Cc1ccc(OC(F)(F)F)cc1)NCc1cnccc1-c1ccccc1C(=O)NCC1CC1` [Example 55], 3.8 µM.
Turning to `C[C@H](CC(=O)NCc1ccccc1-c1cccnc1C(=O)NCc1cccnc1)c1ccccc1` [Example 46], the IC50 was determined as 2.7 µM.
Still for that read-out and setting: in the case of `CC(CC(=O)NCc1ccccc1-c1cccnc1C(=O)NCCc1cccnc1)c1ccc(F)cc1` (centres unmarked) [Example 59] it was 3.2 µM.
As to `COc1ccc(NC(=O)c2ncccc2-c2ccccc2CNC(=O)O[C@@H](C)c2ccccc2)cc1` [Example 21], the IC50 came to 2 µM.
The same measure, in the same setting: under `C[C@H](OC(=O)NCc1cnccc1-c1ccccc1C(=O)NCC1CC1)c1ccccc1` [Example 33] stands 1.7 µM; under `C[C@H](OC(=O)NCc1ccccc1-c1cccnc1C(=O)NCCc1cccnc1)c1ccccc1` [Example 58], 0.7 µM.
Consider `CC(C)C[C@H](NC(=O)c1nccnc1-c1ccccc1CNC(=O)O[C@@H](C)c1ccccc1)C(N)=O` [Example 31], for which the half-inhibitory concentration (IC50) is below 100 µM.
Still for that read-out and setting: under `CC(C)(C)OC(=O)NCc1ccccc1-c1cnccc1C(=O)NCc1ccc(F)cc1F` [Example 4] stands below 100 µM; under `CC(C)(C(=O)NCc1ccccc1-c1cccnc1C(=O)NCCc1ccccn1)c1ccc(Cl)cc1` [Example 64], 0.9 µM.
On the same count and under the same terms, under `CC(C)CCNC(=O)c1ccccc1-c1ccncc1CNC(=O)OC(C)(C)C` [Example 9] stands below 100 µM.
On the same count and under the same terms, in the case of `C[C@@H](O)CNC(=O)c1ncccc1-c1ccccc1CNC(=O)CCc1cccc(OC(F)(F)F)c1` [Example 66] it was below 100 µM; in that of `CC(C)CCNC(=O)c1cccnc1-c1ccccc1CNC(=O)OC(C)(C)C` [Example 5], below 100 µM; in that of `O=C(Cc1ccc(OC(F)(F)F)cc1)NCc1cnccc1-c1ccccc1C(=O)NCCc1cccnc1` [Example 56], 6.1 µM.
`COc1ccc(NC(=O)c2nccnc2-c2ccccc2CNC(=O)OC(C)(C)C)cc1` [Example 12]: the IC50 is below 100 µM.
Same read-out and setting: in the case of `CC(C)(C)OC(=O)NCc1ccccc1-c1ncccc1C(=O)NCc1ccc(F)cc1F` [Example 6] it was below 100 µM; in that of `C[C@H](CC(=O)NCc1ccccc1-c1cccnc1C(=O)NC[C@@H](C)O)c1ccccc1` [Example 67], below 100 µM; in that of `O=C(CCc1cccc(OC(F)(F)F)c1)NCc1ccccc1-c1cccnc1C(=O)NCCc1ccccn1` [Example 63], 1.8 µM.
Turning to `O=C(CCc1cccc(OC(F)(F)F)c1)NCc1ccccc1-c1cccnc1C(=O)NCCc1cccnc1` [Example 60], the IC50 turned out to be 3.1 µM.
On the same count and under the same terms, under `CC(C)CCNC(=O)c1ccncc1-c1ccccc1CNC(=O)OCc1ccccc1` [Example 26] stands below 100 µM.
Same read-out and setting: under `COc1ccc(CC(=O)NCc2ccccc2-c2ncccc2C(=O)NCc2ccc(F)cc2F)cc1` [Example 51] stands below 100 µM.
Still for that read-out and setting: under `CCOc1ccc(C(=O)NCc2ccccc2-c2cccnc2C(=O)N[C@@H](CC(C)C)C(N)=O)cc1` [Example 40] stands below 100 µM; under `CC(C)CCNC(=O)c1ncccc1-c1ccccc1CNC(=O)OCc1ccccc1` [Example 18, Benzyl {2-[2-(3-methylbutylcarbamoyl)pyridin-3-yl]benzyl}carbamate], 2.6 µM.
Regarding `C[C@@H](O)CNC(=O)c1ncccc1-c1ccccc1CNC(=O)C(C)(C)c1ccc(Cl)cc1` [Example 65], the concentration for half-maximal inhibition (IC50) is below 100 µM.
For `C[C@H](CC(=O)NCc1ccccc1-c1cccnc1C(=O)NCCc1ccccn1)c1ccccc1` [Example 49], the half-inhibitory concentration (IC50) is 0.9 µM.
For `CC(C)CCNC(=O)c1ccncc1-c1ccccc1CNC(=O)OC(C)(C)C` [Example 3], the IC50 is below 100 µM.
In the case of `O=C(CCc1cccc(OC(F)(F)F)c1)NCc1ccccc1-c1cccnc1C(=O)NCC1CC1` [Example 62], the half-maximal inhibitory concentration (IC50) is 1.8 µM.
The same measure, in the same setting: under `CC(CC(=O)NCc1ccccc1-c1cccnc1C(=O)NCC1CC1)c1ccc(F)cc1` (centres unmarked) [Example 47] stands 3.1 µM; under `COc1ccc(CCC(=O)NCc2ccccc2-c2cccnc2C(=O)N[C@@H](CC(C)C)C(N)=O)cc1` [Example 41], below 100 µM.
As to `COc1ccc(CC(=O)NCc2ccccc2-c2cccnc2C(=O)N[C@@H](CC(C)C)C(N)=O)cc1` [Example 39], the IC50 is below 100 µM.
With `O=C(NCc1ccccc1-c1ncccc1C(=O)NCc1ccc(F)cc1F)OCc1ccccc1` [Example 29], the IC50 was 7.6 µM.
Regarding `COc1ccc(CC(=O)NCc2ccccc2-c2cccnc2C(=O)Nc2ccc(OC)cc2)cc1` [Example 42], the 50% inhibitory concentration (IC50) is below 100 µM.
Take `CC(C)CCNC(=O)c1cccnc1-c1ccccc1CNC(=O)OCc1ccccc1` [Example 28]: the IC50 came to 9 µM.
As for `COc1ccc(CCC(=O)NCc2ccccc2-c2cccnc2C(=O)NCCc2ccccn2)cc1` [Example 38], the IC50 came out at 5.6 µM.
Consider `CC(C)CCNC(=O)c1nccnc1-c1ccccc1CNC(=O)OC(C)(C)C` [Example 7], for which the IC50 is below 100 µM.
Regarding `CC(CC(=O)NCc1ccccc1-c1cccnc1C(=O)NCCc1ccccn1)c1ccc(F)cc1` (centres unmarked) [Example 45], the IC50 is 0.5 µM.
Consider `CC(C)C[C@H](NC(=O)c1ncccc1-c1ccccc1CNC(=O)O[C@@H](C)c1ccccc1)C(N)=O` [Example 20], for which the 50% inhibitory concentration (IC50) was 1.2 µM.
Consider `C[C@H](OC(=O)NCc1cnccc1-c1ccccc1C(=O)NCCc1cccnc1)c1ccccc1` [Example 34], for which the IC50 turned out to be 4.7 µM.
The same measure, in the same setting: in the case of `Cc1onc(-c2ccccc2)c1C(=O)NCc1ccccc1-c1cccnc1C(=O)NCC1CC1` [Example 48] it was 2.4 µM; in that of `CCOc1ccc(C(=O)NCc2ccccc2-c2cccnc2C(=O)NCCc2ccccn2)cc1` [Example 37], below 100 µM; in that of `C[C@H](OC(=O)NCc1ccccc1-c1cccnc1C(=O)NCCc1ccccn1)c1ccccc1` [Example 19], 0.6 µM.
Same read-out and setting: in the case of `C[C@H](CC(=O)NCc1ccccc1-c1cccnc1C(=O)NCC1CC1)c1ccccc1` [Example 35, 3-{2-(R)-[(3-Phenylbutyrylamino)methyl]phenyl}pyridine-2-carboxylate cyclopropylmethylamide] it was 0.4 µM.
The same measure, in the same setting: in the case of `CC(CC(=O)NCc1cnccc1-c1ccccc1C(=O)NCC1CC1)c1ccc(F)cc1` (centres unmarked) [Example 54] it was below 100 µM; in that of `CC(C)(C(=O)NCc1ccccc1-c1cccnc1C(=O)NCC1CC1)c1ccc(Cl)cc1` [Example 61], 1.7 µM; in that of `CCOc1ccc(C(=O)NCc2ccccc2-c2cccnc2C(=O)Nc2ccc(OC)cc2)cc1` [Example 43], below 100 µM.
